Assay results from patent publication US12371454B2, “Cyclic peptide compound having Kras inhibitory action” (priority 2019, dated 2025).
Starred links: 1 amine or outer side, 2 acyl side, 3 side chain; linkers in the order of their positions; H or OH if unused. Positions of bridges follow the written chain, without caps; N, C: chain ends. Non-standard residues stand in square brackets, D forms with d. Residues, ends and D or L forms follow the SMILES beside them. *: point of attachment. hPhe(3-Cl-4-CF3) = N[C@@H](CCc1ccc(C(F)(F)F)c(Cl)c1)C(=O)O; NMePhe(4-CF3) = CN[C@@H](Cc1ccc(C(F)(F)F)cc1)C(=O)O; NEtAsp = CCN([C@@H](CC(=O)[*:3])C(=O)[*:2])[*:1]; NMePhe(4-Cl) = CN[C@@H](Cc1ccc(Cl)cc1)C(=O)O; NMePhe(4-F) = CN[C@@H](Cc1ccc(F)cc1)C(=O)O; NMedβ3hAla = C[C@H](CC(=O)[*:2])N(C)[*:1]; NMeGly(cPent) = CN[C@H](C(=O)O)C1CCCC1; Pro(4,4-F2) = O=C(O)[C@@H]1CC(F)(F)CN1; NMeGly(cBu) = CN[C@H](C(=O)O)C1CCC1; NMeCha = CN[C@@H](CC1CCCCC1)C(=O)O; NMeChg = CN[C@H](C(=O)O)C1CCCCC1; NMeI = CC[C@H](C)[C@H](NC)C(=O)O; NMeD = CN[C@@H](CC(=O)O)C(=O)O; NMeL = CN[C@@H](CC(C)C)C(=O)O; NMeV = CN[C@H](C(=O)O)C(C)C; d(β3hA) = C[C@@H](N)CC(=O)O; NMeA = CN[C@@H](C)C(=O)O; Piperidide = C1CCN(*)CC1; Thz = O=C(O)[C@@H]1CSCN1; dNMeA = CN[C@H](C)C(=O)O; Ac5c = NC1(C(=O)O)CCCC1; Aze = O=C(O)[C@@H]1CCN1; Sar = CNCC(=O)O

System: Human pancreatic cancer cell line AsPC-1
Test: Measurement of AsPC-1 cell growth inhibition (AsPC-1 CGI)
Format: cell-based
Conditions: 96 h
Outline: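 AsPC-1 cells in 15% FBS RPMI-1640 were exposed to test compound for 96 hours at 37° C, with CellTiter-Glo as endpoint.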

SMILES	IC50
CC[C@H](C)[C@@H]1NC(=O)[C@H](CC(C)C)N(C)C(=O)C[C@@H](C(=O)N2CCCCC2)N(CC)C(=O)[C@H](C2CCCC2)N(C)C(=O)C2(CCCC2)NC(=O)[C@@H]2CCCN2C(=O)[C@H](CCc2ccc(C(F)(F)F)c(Cl)c2)NC(=O)CN(C)C(=O)[C@H](C2CCC2)N(C)C(=O)[C@@H]2CCN2C(=O)[C@H](C)N(C)C1=O [Compound 1047] ([NMeL]I[NMeA][Aze][NMeGly(cBu)][Sar][hPhe(3-Cl-4-CF3)]P[Ac5c][NMeGly(cPent)][NEtAsp]-Piperidide; lactam N-11)	50 to 100 nM
CC[C@H](C)[C@@H]1NC(=O)[C@H](CC(C)C)N(C)C(=O)C[C@@H](C(=O)N2CCCCC2)N(C)C(=O)[C@H]([C@@H](C)CC)N(C)C(=O)C2(CCCC2)NC(=O)[C@@H]2CCCN2C(=O)[C@H](CCc2ccc(C(F)(F)F)c(Cl)c2)NC(=O)CN(C)C(=O)[C@H](Cc2ccc(F)cc2)N(C)C(=O)[C@@H]2CCN2C(=O)[C@H](C)N(C)C1=O [Compound 1060] ([NMeL]I[NMeA][Aze][NMePhe(4-F)][Sar][hPhe(3-Cl-4-CF3)]P[Ac5c][NMeI][NMeD]-Piperidide; lactam N-11)	20 to 50 nM
CC[C@H](C)[C@@H]1NC(=O)[C@H](CC(C)C)N(C)C(=O)C[C@@H](C(=O)N2CCCCC2)N(C)C(=O)[C@H](C2CCCCC2)N(C)C(=O)C2(CCCC2)NC(=O)[C@@H]2CSCN2C(=O)[C@H](CCc2ccc(C(F)(F)F)c(Cl)c2)NC(=O)CN(C)C(=O)[C@H](CC2CCCCC2)N(C)C(=O)CN(C)C(=O)CN(C)C1=O [Compound 1093] ([NMeL]I[Sar][Sar][NMeCha][Sar][hPhe(3-Cl-4-CF3)][Thz][Ac5c][NMeChg][NMeD]-Piperidide; lactam N-11)	20 to 50 nM

The next lines start with the values.

IC50	SMILES
20 to 50 nM	CC[C@H](C)[C@@H]1NC(=O)[C@H](CC(C)C)N(C)C(=O)C[C@@H](C)N(C)C(=O)[C@H](C2CCCC2)N(C)C(=O)C2(CCCC2)NC(=O)[C@@H]2CCCN2C(=O)[C@H](CCc2ccc(C(F)(F)F)c(Cl)c2)NC(=O)CN(C)C(=O)[C@H](C2CCCC2)N(C)C(=O)[C@@H]2CCN2C(=O)[C@H](C)N(C)C1=O [Compound 1046] (cyclo([Ac5c][NMeGly(cPent)][NMedβ3hAla][NMeL]I[NMeA][Aze][NMeGly(cPent)][Sar][hPhe(3-Cl-4-CF3)]P))
20 to 50 nM	CC[C@H](C)[C@@H]1NC(=O)[C@H](CC(C)C)N(C)C(=O)C[C@@H](C)N(C)C(=O)[C@H](C2CCCC2)N(C)C(=O)C2(CCCC2)NC(=O)[C@@H]2CC(F)(F)CN2C(=O)[C@H](CCc2ccc(C(F)(F)F)c(Cl)c2)NC(=O)CN(C)C(=O)[C@H](Cc2ccc(C(F)(F)F)cc2)N(C)C(=O)[C@@H]2CCN2C(=O)[C@H](C)N(C)C1=O [Compound 1062] (cyclo([Ac5c][NMeGly(cPent)][NMedβ3hAla][NMeL]I[NMeA][Aze][NMePhe(4-CF3)][Sar][hPhe(3-Cl-4-CF3)][Pro(4,4-F2)]))
100 to 500 nM	CC[C@H](C)[C@@H]1NC(=O)[C@H](C)N(C)C(=O)C[C@@H](C)NC(=O)[C@H](C2CCCC2)N(C)C(=O)C2(CCCC2)NC(=O)[C@@H]2CCCN2C(=O)[C@H](CCc2ccc(C(F)(F)F)c(Cl)c2)NC(=O)[C@@H](C)N(C)C(=O)[C@H](C(C)C)N(C)C(=O)[C@@H]2CCN2C(=O)[C@H](C)N(C)C1=O [Compound 1066] (cyclo([Ac5c][NMeGly(cPent)][d(β3hA)][NMeA]I[NMeA][Aze][NMeV][dNMeA][hPhe(3-Cl-4-CF3)]P))
100 to 500 nM	CC[C@H](C)[C@@H]1NC(=O)[C@H](C(C)C)N(C)C(=O)C[C@@H](C)NC(=O)[C@H](C(C)C)N(C)C(=O)C2(CCCC2)NC(=O)[C@H](CC(C)C)N(C)C(=O)[C@H](CCc2ccc(C(F)(F)F)c(Cl)c2)NC(=O)CN(C)C(=O)[C@H](Cc2ccc(Cl)cc2)N(C)C(=O)CN(C)C(=O)CN(C)C1=O [Compound 1069] (cyclo([Ac5c][NMeV][d(β3hA)][NMeV]I[Sar][Sar][NMePhe(4-Cl)][Sar][hPhe(3-Cl-4-CF3)][NMeL]))
